What all share (format): biochemical
Holding throughout (conditions): 200 μg/ml Poly Glu-Tyr (4:1), ATP 1 uM, 90 min room temperature, luminescence

Assay [1] addresses T1, Recombinant JAK1 (Amino acids 850-1154) (Homo sapiens, UniProt P23458).
T1 construct: Recombinant JAK1 (Amino acids 850-1154; NM_002227.2); made in house; host or cells: baculovirus expression system (Bac-to-Bac)
Nature of the assay: Kinase-Glo Luminescent Kinase Assay, recombinant JAK1. Put shortly: (§1)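 Baculovirus-expressed kinase domains were pre-incubated 5 min with compound (1% DMSO), then reacted 90 min at room temperature with 200 μg/ml poly Glu-Tyr (4:1) and 1 uM ATP in 50 mM HEPES pH 7.4, 5 mM MgCl2. Remaining ATP was read by Kinase-Glo luminescence. IC50 came from four-parameter logistic fits.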
(In general: In Kinase-Glo more light means more ATP remaining.)

For assay [2], the target named is T2, Recombinant JAK2 (Amino acids 808-1132) (Homo sapiens, UniProt O60674).
T2 construct: JAK2 (Amino acids 808-1132; NM_004972.3); made in house; host or cells: baculovirus expression system (Bac-to-Bac)
The assay is described as follows: Kinase-Glo Luminescent Kinase Assay, recombinant JAK2. An excerpt: Recombinant JAK1 (Amino acids 850-1154; NM_002227.2), JAK2 (Amino acids 808-1132; NM_004972.3) and JAK3 (Amino acids 781-1124; NM_000215.3) used in the studies were expressed using Invitrogen's Bac-to-Bac baculovirus expression system according to manufacturer's instructions. Adenosine 5′-triphosphate was obtained from Sigma Aldrich chemicals (Cat # A7699). Poly Glu-Tyr (4:1) sodium salt was obtained from Sigma Aldrich (Cat # P0275), Kinase Glo® Luminescent Kinase assay kit was obtained from Promega (Cat # V6713) Kinase activity was assessed by Promega Kinase-Glo® Luminescent Kinase Assay kit using 200 μg/ml Poly Glu-Tyr (4:1) as substrate and ATP at 1 uM concentration. The reactions were carried out in 384 well plates in total reaction volume of 20 uL. Reaction mixtures contained 50 mM HEPES pH 7.4, 5 mM MgCl2, 1 mM DTT, 0.01% BSA, 0.01% Tween 20. Kinase was pre-incubated with compounds or 1% DMSO for 5 min before addition of substrate and ATP to check for inhibition. Kinase reactions were carried out at room temperature for 90 min. The reactions were stopped by adding 5 μl of Kinase Glo® reagent & 10 μl of reaction mixture followed by measuring luminescence. The luminescent signal is correlated with the amount of ATP present at the end of kinase reaction and is inversely correlated with the amount of kinase activity. For each data point, % inhibition is calculated based on uninhibited reaction (without compound) which is considered as 100% activity over no enzyme or substrate controls. Dose response data is then fit using a four parameter logistic equation using Graph-pad Prism 5 software to determine inhibition constant 50 (IC50).

For assay [3], the target named is T3, Recombinant JAK3 (Amino acids 781-1124) (Homo sapiens, UniProt P52333).
T3 construct: JAK3 (Amino acids 781-1124; NM_000215.3); made in house; host or cells: baculovirus expression system (Bac-to-Bac)
The assay is described as follows: Kinase-Glo Luminescent Kinase Assay, recombinant JAK3. An outline of the steps: as §1

T3 sequence (P52333 781-1124): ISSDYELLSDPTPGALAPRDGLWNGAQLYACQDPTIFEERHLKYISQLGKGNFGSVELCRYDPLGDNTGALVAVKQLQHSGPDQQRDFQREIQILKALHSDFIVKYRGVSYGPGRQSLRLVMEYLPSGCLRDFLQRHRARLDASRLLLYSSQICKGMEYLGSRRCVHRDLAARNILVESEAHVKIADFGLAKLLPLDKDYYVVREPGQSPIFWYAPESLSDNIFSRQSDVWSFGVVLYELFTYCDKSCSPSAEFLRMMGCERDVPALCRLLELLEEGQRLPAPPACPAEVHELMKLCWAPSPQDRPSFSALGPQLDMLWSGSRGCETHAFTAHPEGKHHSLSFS
T2 sequence (O60674 808-1132): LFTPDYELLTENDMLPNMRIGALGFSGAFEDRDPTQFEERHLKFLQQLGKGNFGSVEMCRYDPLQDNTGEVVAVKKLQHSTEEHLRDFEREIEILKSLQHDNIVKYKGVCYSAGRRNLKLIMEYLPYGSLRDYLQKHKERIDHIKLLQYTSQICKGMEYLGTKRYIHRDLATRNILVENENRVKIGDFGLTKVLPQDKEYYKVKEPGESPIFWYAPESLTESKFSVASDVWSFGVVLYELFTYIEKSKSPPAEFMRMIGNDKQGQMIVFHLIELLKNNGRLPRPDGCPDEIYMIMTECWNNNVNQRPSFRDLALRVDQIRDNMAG
T1 sequence (P23458 850-1154): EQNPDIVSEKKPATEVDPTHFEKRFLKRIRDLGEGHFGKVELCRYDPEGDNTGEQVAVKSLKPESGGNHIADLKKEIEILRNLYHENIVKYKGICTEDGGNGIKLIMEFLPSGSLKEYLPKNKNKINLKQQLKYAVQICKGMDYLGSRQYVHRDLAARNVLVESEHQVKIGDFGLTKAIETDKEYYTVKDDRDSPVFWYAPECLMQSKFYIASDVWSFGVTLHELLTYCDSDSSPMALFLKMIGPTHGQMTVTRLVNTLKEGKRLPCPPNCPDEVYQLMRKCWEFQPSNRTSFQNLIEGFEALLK

Consider `O=C(CC(F)(F)F)N1CC[C@H](c2ccnc3cnc4[nH]ccc4c23)C1` [Ex. 15A, (R)3,3,3-trifluoro-1-[3-(3H-pyrrolo[3,2-f][1,7]naphthyridin-9-yl)pyrrolidin-1-yl]propan-1-one], for which the half-inhibitory concentration (IC50) in assay [1], in assay [2] and in assay [3] was > 20 nM throughout.

For `N#CCS(=O)(=O)N1CCC(c2ccnc3cnc4[nH]ccc4c23)C1` (stereo not drawn) [Ex. 16, 2-[3-(3H-pyrrolo[3,2-f][1,7]naphthyridin-9-yl)pyrrolidin-1-yl]sulfonylacetonitrile], the IC50 in assay [1] is 1 to 20 nM; in assay [2] it was 1 to 20 nM; in assay [3], > 20 nM.

As for `O=S(=O)(N1CCC(c2ccnc3cnc4[nH]ccc4c23)C1)C(F)(F)F` (stereo not drawn) [Ex. 17, 9-[1-(trifluoromethylsujlfonyl)pyrrolidin-3-yl]-3H-pyrrolo[3,2-f][1,7]naphthyridine], the values for the 50% inhibitory concentration (IC50) in assay [1], in assay [2] and in assay [3] were > 20 nM, 1 to 20 nM and > 20 nM, respectively.

As to `CC(C)CS(=O)(=O)N1CCC(c2ccnc3cnc4[nH]ccc4c23)C1` (stereo not drawn) [Ex. 18, 9-(1-isobutylsulfonylpyrrolidin-3-yl)-3H-pyrrolo[3,2-f][1,7]naphthyridine], the half-inhibitory concentration (IC50) is 1 to 20 nM in assay [1], 1 to 20 nM in assay [2] and > 20 nM in assay [3].

For the molecule `CCS(=O)(=O)N1CCC(c2ccnc3cnc4[nH]ccc4c23)C1` (stereo not drawn) [Ex. 19, 9-(1-ethylsulfonylpyrrolidin-3-yl)-3H-pyrrolo[3,2-f][1,7]naphthyridine], the 50% inhibitory concentration (IC50) in assay [1] is 1 to 20 nM; in assay [2], 1 to 20 nM; in assay [3] it was > 20 nM.

Turning to `CS(=O)(=O)N1CCC(c2ccnc3cnc4[nH]ccc4c23)C1` (stereo not drawn) [Ex. 20, 9-(1-methylsulfonylpyrrolidin-3-yl)-3H-pyrrolo[3,2-f][1,7]naphthyridine], the IC50 in assay [1] was 1 to 20 nM; in assay [2] it was 1 to 20 nM; in assay [3], > 20 nM.

Take `CC(C)CC(=O)N1CCCC(c2ncnc3cnc4[nH]ccc4c23)C1` (stereo not drawn) [Ex. 21, 3-Methyl-1-[3-(3H-3,4,6,8-tetraazacyclopenta[a]naphthalen-9-yl)-piperidin-1-yl]-butan-1-one]: the IC50 in assay [1], in assay [2] and in assay [3] was > 20 nM in each case.

Take `CC(C)C(=O)N1CCCC(c2ncnc3cnc4[nH]ccc4c23)C1` (stereo not drawn) [Ex. 22, 2-Methyl-1-[3-(3H-3,4,6,8-tetraazacyclopenta[a]naphthalen-9-yl)-piperidin-1-yl]-propan-1-one]: the IC50 in assay [1], in assay [2] and in assay [3] was > 20 nM each time.

As for `N#CCC(=O)N1CCCC(c2ncnc3cnc4[nH]ccc4c23)C1` (stereo not drawn) [Ex. 23, 3-Oxo-3-[3-(3H-3,4,6,8-tetraazacyclopenta[a]naphthalen-9-yl)-piperidin-1-yl]-propionitrile], the concentration for half-maximal inhibition (IC50) in assay [1], in assay [2] and in assay [3] was 1 to 20 nM in each case.

Turning to `N#CCC(=O)N1CCC[C@@H](c2ncnc3cnc4[nH]ccc4c23)C1` [Ex. 23A, (R)3-Oxo-3-[3-(3H-3,4,6,8-tetraazacyclopenta[a]naphthalen-9-yl)-piperidin-1-yl]-propionitrile], the IC50 in assay [1], in assay [2] and in assay [3] was > 20 nM in each case.

On to `O=C(CC(F)(F)F)N1CCCC(c2ncnc3cnc4[nH]ccc4c23)C1` (stereo not drawn) [Ex. 24, 3,3,3-Trifluoro-1-[3-(3H-3,4,6,8-tetraazacyclopenta[a]naphthalen-9-yl)-piperidin-1-yl]-propan-1-one], for which the results for the IC50 in assay [1], in assay [2] and in assay [3] were 1 to 20 nM, 1 to 20 nM and > 20 nM, respectively.

Turning to `O=C(CC(F)(F)F)N1CCC[C@@H](c2ncnc3cnc4[nH]ccc4c23)C1` [Ex. 24A, (R)3,3,3-Trifluoro-1-[3-(3H-3,4,6,8-tetraazacyclopenta[a]naphthalen-9-yl)-piperidin-1-yl]-propan-1-one], the IC50 in assay [1], in assay [2] and in assay [3] was > 20 nM each time.

Regarding `O=C(CC1CC1)N1CCCC(c2ncnc3cnc4[nH]ccc4c23)C1` (stereo not drawn) [Ex. 25, 2-Cyclopropyl-1-[3-(3H-3,4,6,8-tetraazacyclopenta[a]naphthalen-9-yl)-piperidin-1-yl]-ethanone], the IC50 is 1 to 20 nM in assay [1], > 20 nM in assay [2] and > 20 nM in assay [3].

As to `O=C(C1CCOC1)N1CCCC(c2ncnc3cnc4[nH]ccc4c23)C1` (stereo not drawn) [Ex. 26, [3-(3H-3,4,6,8-Tetraaza-cyclopenta[a]naphthalen-9-yl)-piperidin-1-yl]-(tetrahydro-furan-3-yl)-mathanone], the half-inhibitory concentration (IC50) was 1 to 20 nM in assay [1], > 20 nM in assay [2] and > 20 nM in assay [3].

In the case of `CCC(=O)N1CCCC(c2ncnc3cnc4[nH]ccc4c23)C1` (stereo not drawn) [Ex. 27, 1-[3-(3H-3,4,6,8-Tetraaza-cyclopenta[a]naphthalen-9-yl)-piperidin-1-yl]-propan-1-one], the IC50 in assay [1], in assay [2] and in assay [3] was > 20 nM in each case.

Turning to `CC(C)(C)C(=O)N1CCCC(c2ncnc3cnc4[nH]ccc4c23)C1` (stereo not drawn) [Ex. 28, 2,2-Dimethyl-1-[3-(3H-3,4,6,8-tetraaza-cyclopenta[a]naphthalen-9-yl)-piperidin-1-yl]-propan-1-one], the figures for the 50% inhibitory concentration (IC50) in assay [1], in assay [2] and in assay [3] were 1 to 20 nM, 1 to 20 nM and > 20 nM, respectively.

In the case of `O=C(C1CC1)N1CCCC(c2ncnc3cnc4[nH]ccc4c23)C1` (stereo not drawn) [Ex. 29, Cyclopropyl-[3-(3H-3,4,6,8-tetraaza-cyclopenta[a]naphthalen-9-yl)-piperidin-1-yl]-methanone], the IC50 in assay [1], in assay [2] and in assay [3] was > 20 nM throughout.

For `CC(C)CS(=O)(=O)N1CCCC(c2ncnc3cnc4[nH]ccc4c23)C1` (stereo not drawn) [Ex. 30, 9-[1-(2-Methyl-propane-1-sulfonyl)-piperidin-3-yl]-3H-3,4,6,8-tetraaza-cyclopenta[a]naphthalene], the 50% inhibitory concentration (IC50) in assay [1], in assay [2] and in assay [3] was > 20 nM in each case.

Turning to `O=S(=O)(C1CC1)N1CCCC(c2ncnc3cnc4[nH]ccc4c23)C1` (stereo not drawn) [Ex. 31, 9-(1-Cyclopropanesulfonyl-piperidin-3-yl)-3H-3,4,6,8-tetraaza-cyclopenta[a]naphthalene], the half-maximal inhibitory concentration (IC50) in assay [1], in assay [2] and in assay [3] was > 20 nM each time.

Consider `CC(C)NC(=O)N1CCCC(c2ncnc3cnc4[nH]ccc4c23)C1` (stereo not drawn) [Ex. 32, 3-(3H-3,4,6,8-Tetraaza-cyclopenta[a]naphthalen-9-yl)-piperidine-1-carboxylic acid isopropylamide], for which the IC50 in assay [1], in assay [2] and in assay [3] was > 20 nM each time.

Take `CC(C)/C(=N\C#N)N1CCCC(c2ccnc3cnc4[nH]ccc4c23)C1` (stereo not drawn) [Ex. 43, (E)-[2-methyl-1-[3-(3H-pyrrolo[3,2-f][1,7]naphthyridin-9-yl)-1-piperidyl]propylidene]cyanamide]: the half-inhibitory concentration (IC50) in assay [1] was > 20 nM; in assay [2] it was 1 to 20 nM; in assay [3], 1 to 20 nM.

For the molecule `CC(C)/C(=N\C#N)N1CCC[C@H](c2ccnc3cnc4[nH]ccc4c23)C1` [Ex. 43A, (R)(E)-[2-methyl-1-[3-(3H-pyrrolo[3,2-f][1,7]naphthyridin-9-yl)-1-piperidyl]propylidene]cyanamide], the half-inhibitory concentration (IC50) in assay [1], in assay [2] and in assay [3] was > 20 nM in each case.

`CC(C)/C(=N\C#N)N1CCC[C@@H](c2ccnc3cnc4[nH]ccc4c23)C1` [Ex. 43B, (S)(E)-[2-methyl-1-[3-(3H-pyrrolo[3,2-f][1,7]naphthyridin-9-yl)-1-piperidyl]propylidene]cyanamide]: the IC50 in assay [1], in assay [2] and in assay [3] was 1 to 20 nM in each case.

In the case of `N#C/N=C(\CC(F)(F)F)N1CCCC(c2ccnc3cnc4[nH]ccc4c23)C1` (stereo not drawn) [Ex. 44, (E)-[3,3,3-trifluoro-1-[3-(3H-pyrrolo[3,2-f][1,7]naphthyridin-9-yl)-1-piperidyl]propylidene]cyanamide], the values for the IC50 in assay [1], in assay [2] and in assay [3] were 1 to 20 nM, 1 to 20 nM and > 20 nM, respectively.

The term IC50 denotes the concentration that inhibits the measured activity by half.

Values taken from US9115133B2, “Substituted fused tricyclic compounds, compositions and medicinal applications thereof” (Advinus Therapeutics Limited, priority 2011, dated 2015).
